Where a name gives a salt, the structure may show the parent alone. Read-outs that look alike come from different tables or passages of the source.
How the values were obtained:
human adipocyte cells [1] = experiment: Cytotoxicity assay: metabolic activity (resazurin conversion) of human adipocytes; format: cell-based; conditions: read-out: IC50 (metabolic activity after 48 hrs), Example 1, 48 hrs exposure, resazurin
Method: (§1) HWP were obtained in passage two and differentiated in vitro to mature adipocytes. Briefly, cells were initially cultured in preadipocyte growth medium at 37° C. and 5% CO2 to 70-80% confluency. Then, cells were seeded at 40,000 cells/ml into 96-well flat bottom tissue culture plates and incubated overnight to allow attachment. Differentiation was initiated by changing the medium to preadipopcyte differentiation medium for an additional 72 hrs. After differentiation was induced, the medium was replaced by adipocyte nutrition medium that was refreshed every 2-3 days over a period of 14 days until termination of differentiation. Differentiation status was checked via nile red staining of control cells.
(§2) The test items 1 to 8 were prepared according to Table 1 to yield respective stock solutions. Said stock solutions were further diluted in assay media to obtain the double concentrated working solutions, which were subsequently diluted 1:2 in the final assay. […] Deoxycholate Na was selected as “reference compound”.
(§3) For the cytotoxicity assays in this study pre-adipocytes were seeded at 40,000 cells/ml into a 96-well microtiter flat bottom plate. The test items were prepared in separate plates starting with the double concentrated maximal test concentration followed by a 1:2 serial dilution (Chloroquine and Fluoxetine 1:3) and then added to the cells. The test items were tested at 6 replicates/concentration. Each plate included negative controls (media plus solvent, 6 replicates), a drug interference control (all concentrations, duplicates), a background control (14 replicates), a positive (=cytotoxic) control (6 replicates doxorubicin, 1 μM final) and a positive control for maximal LDH-release (2 replicates, 2% Triton-x 100 final).
(§4) Relative cell viability was determined after 48 hrs exposure based on metabolic activity (i.e. resazurin conversion). Using a Victor^3 1420 Multilabel Counter, the resazurin conversion to the fluorescent resorufin by metabolically active cells was recorded at 560Ex/590Em. Membrane integrity was measured after 6 hrs and 48 hrs and the enzymatic activity of released LDH in the cell supernatant after 30 min of incubation at 492 nmabsorption/690 nmreference by a spectrophotometer. The volume withdrawn from the cultures for the LDH-assay was not replaced to keep cells in a less disturbed environment. The assay was conducted in a multiplexed format.
In order to derive meaningful IC50 values from the primary data, the entire biological window of activity ranging from 0% to 100% viability should be covered and the resolution has to be sufficient. To improve data quality, the serial dilution factor used in previous experiments was reduced to a 1:2 and 1:3 dilution. […] IC50 (half maximal inhibitory concentration, calculated via Sigma Plot 10) values were determined for each test substance 1 to 8.
(§5) The effects on cytotoxicity in human adipocyte cells of a further 9 compounds were tested. The experimental set-up was identical to the one in example 1.

human adipocyte cells [2] = experiment: Membrane integrity: LDH release from human adipocytes (LDH assay); format: cell-based; conditions: Example 1, 48 hrs, relative to Triton-x 100 maximal LDH release
Method: as §1, §3, §4
For the dose-response relationship, absolute absorption (OD treated wells−background) was plotted against the test item concentrations representing LDH leakage from the cells. For a better estimation of the test items' potential influencing the membrane integrity, relative, maximal LDH release in percent (see Table 2) was also calculated according to the following formula: […]
as §5

Human white adipocytes = experiment: Apoptosis/necrosis detection, Annexin V-FITC/PI flow cytometry; format: cell-based; conditions: for apoptosis/necrosis induction in human adipocytes (in words): 5, 24, 48 hrs, concentrations as in Table 4
Source text: The apoptotic program is characterized by certain morphologic features. Loss of plasma membrane asymmetry is a well established indicator for apoptotic cells. In apoptotic cells, the membrane phospholipid phosphatidylserine (PS) is translocated from the inner to the outer leaflet of the plasma membrane, thereby exposing PS to the external environment. In general, this PS translocation is preceded by caspase activation. Annexin V labelled with FITC is a Ca^2+ dependent phospholipid-binding protein with high affinity for PS and binds to cells with externalized PS. Cells stained with Annexin V*FITC are therefore considered in an early apoptotic stage.
Staining with Annexin V-FITC is typically used in conjunction with a vital dye such as propidium iodide (PI) to allow discrimination between early apoptotic and necrotic cells. Necrotic dying cells are PI positive only. Cells that are viable are Annexin V and PI negative; cells that entered apoptosis are Annexin V positive and PI negative and cells that are in post apoptotic and/or necrotic phase are both Annexin V and PI positive.
Human white adipocytes that had been differentiated in vitro from pre-adipocytes as describe above were used. Measurements were performed after 5 hrs to catch early apoptotic/necrotic events and after 24 hrs and 48 hrs for later stages. Naringenin at 500 μM (reported to induce apoptosis in adipocytes) was used as positive control and media plus solvent was used as negative control. Each compound was tested in three different concentrations. […] Two more concentrations, one below and one above the IC50 were added.
Flow cytometry was performed with a dual laser FC500. After completion of the staining procedure, tubes were grouped into a FC500 carousel for semi-automated data acquisition. Cells were first acquired in “Setup” mode to tune the parameters FS, SS, FL1 and FL2. After completion of the setup, baseline compensation was switched on and cells were acquired. Cells were acquired without life-gate but using FS threshold to exclude debris. All cells were acquired using individually corrected settings.
After completion of data acquisition, analysis was done using the CXP software. If necessary, software-based post acquisition compensation was performed to fine-correct for fluorescence overlap not adjusted for during the acquisition phase. Quadrant markers were set based on the negative controls.

subcutaneous fat-tissue = conditions: rats
[3] = Precipitation of test item in cytotoxicity assay media; format: physicochemical; conditions: above 500 μM
Method: as §2

[4] = 1 mg/mL, 300 μL s.c. Day 1, 7, 28, histology day 29

Row | Compound | Rel. max. LDH release [%] 48 hrs (human adipocyte cells [2]) [%] | primary mode of cell death (Human white adipocytes) | Early Apoptosis [A-V*/PI*] (Human white adipocytes; 60 μM, 5 hrs) | Necrosis/ Late Apoptosis [A-V*/PI*] (Human white adipocytes; 60 μM, 5 hrs) | Normal [A-V*/PI] (Human white adipocytes; 60 μM, 5 hrs) | Early Apoptosis [A-V*/PI*] (Human white adipocytes; 60 μM, 24 hrs) | Necrosis/ Late Apoptosis [A-V*/PI*] (Human white adipocytes; 60 μM, 24 hrs) | Normal [A-V*/PI] (Human white adipocytes; 60 μM, 24 hrs) | Early Apoptosis [A-V*/PI*] (Human white adipocytes; 60 μM, 48 hrs) | Necrosis/ Late Apoptosis [A-V*/PI*] (Human white adipocytes; 60 μM, 48 hrs) | Normal [A-V*/PI] (Human white adipocytes; 60 μM, 48 hrs) | Necrosis/ Late Apoptosis [A-V*/PI*] (Human white adipocytes; 80 μM, 5 hrs) | Normal [A-V*/PI] (Human white adipocytes; 80 μM, 5 hrs) | Early Apoptosis [A-V*/PI*] (Human white adipocytes; 80 μM, 24 hrs) | Necrosis/ Late Apoptosis [A-V*/PI*] (Human white adipocytes; 80 μM, 24 hrs) | Normal [A-V*/PI] (Human white adipocytes; 80 μM, 24 hrs) | Necrosis/ Late Apoptosis [A-V*/PI*] (Human white adipocytes; 80 μM, 48 hrs) | Normal [A-V*/PI] (Human white adipocytes; 80 μM, 48 hrs) | apoptosis/necrosis induction in human adipocytes (in words) (Human white adipocytes) | further results
1 | CNCCC(Oc1ccc(C(F)(F)F)cc1)c1ccccc1 (stereo not shown) [Test substance 4, Fluoxetine HCl] | 101.0 | fast and strong apoptosis induction | 58.5 | 1.3 | 45.2 | 78.7 | 5.5 | 14.7 | 37.9 | 19.8 | 42.3 | 1.6 | 47 | 41.9 | 44.1 | 14 | 42.2 | 2.7 | rapidly induced strong apoptosis | IC50 (human adipocyte cells [1]; Homo sapiens, Adipocyte): 52 µM; Early Apoptosis [A-V*/PI*] (Human white adipocytes; 40 μM, 5 hrs): 26.9; Necrosis/ Late Apoptosis [A-V*/PI*] (Human white adipocytes; 40 μM, 5 hrs): 0; Necrosis/ Late Apoptosis [A-V*/PI*] (Human white adipocytes; 40 μM, 24 hrs): 2.6; Normal [A-V*/PI] (Human white adipocytes; 40 μM, 24 hrs): 49.9; Early Apoptosis [A-V*/PI*] (Human white adipocytes; 40 μM, 48 hrs): 22.7; Necrosis/ Late Apoptosis [A-V*/PI*] (Human white adipocytes; 40 μM, 48 hrs): 7.7; cells apoptotic (Human white adipocytes; 80 μM, 5 h): more than 50%; degree of histological changes at administration sites (subcutaneous connective and/or adipose tissue) (subcutaneous fat-tissue; [4]): minimal or mild in degree; edema at administration sites (subcutaneous fat-tissue; [4]): minimal or mild; fibrosis at administration sites (subcutaneous fat-tissue; [4]): minimal or mild; haemorrhage at administration sites (subcutaneous fat-tissue; [4]): minimal or mild; infiltrates of granulocytes at administration sites (subcutaneous fat-tissue; [4]): minimal; infiltrates of mononuclear cells at administration sites (subcutaneous fat-tissue; [4]): minimal to moderate; single cell death of inflammatory cells and/or connective tissue at administration sites (subcutaneous fat-tissue; [4]): minimal; adipocytolysis (concluded from inflammatory reaction) (subcutaneous fat-tissue; repetitive s.c. injection): causes adipocytolysis
2 | CC(=O)N1CCN(c2ccc(OCC3COC(Cn4ccnc4)(c4ccc(Cl)cc4Cl)O3)cc2)CC1 (stereo not shown) [Test substance 5, Ketoconazole] | 92.2 | Apoptosis can be considered primary mode of cell death at the lower concentration range with necrosis taking place later at higher concentrations | 26.5 | 1.4 | 72.1 | 19.5 | 2.6 | 77.9 | 9.1 | 3.8 | 87.1 | 2.2 | 63.8 | 22.7 | 17.9 | 59.4 | 44.9 | 36.6 | caused apoptosis after 5 hrs at 60, 80, and 100 μM increasing over time | IC50 (human adipocyte cells [1]): 78 µM; Early Apoptosis [A-V*/PI*] (Human white adipocytes; 80 μM, 5 hrs): 34; Early Apoptosis [A-V*/PI*] (Human white adipocytes; 80 μM, 48 hrs): 18.5; Early Apoptosis [A-V*/PI*] (Human white adipocytes; 100 μM, 5 hrs): 23.6; Necrosis/ Late Apoptosis [A-V*/PI*] (Human white adipocytes; 100 μM, 5 hrs): 3.1; Normal [A-V*/PI] (Human white adipocytes; 100 μM, 5 hrs): 73.3; Early Apoptosis [A-V*/PI*] (Human white adipocytes; 100 μM, 24 hrs): 16.9; Necrosis/ Late Apoptosis [A-V*/PI*] (Human white adipocytes; 100 μM, 24 hrs): 82.6; Normal [A-V*/PI] (Human white adipocytes; 100 μM, 24 hrs): 0.5; Early Apoptosis [A-V*/PI*] (Human white adipocytes; 100 μM, 48 hrs): 36.9; Necrosis/ Late Apoptosis [A-V*/PI*] (Human white adipocytes; 100 μM, 48 hrs): 52.5; Normal [A-V*/PI] (Human white adipocytes; 100 μM, 48 hrs): 0.5; precipitation in assay media [3]: generation of insoluble precipitates at higher concentrations

From patent publication US20130143869A1, “USE OF A CATIONIC AMPHIPHILIC DRUG FOR THE PREPARATION OF A FORMULATION FOR THE REDUCTION OF SUBCUTANEOUS ADIPOSE TISSUE” (Merz Pharma GmbH & CO. KGaA, priority 2010, published 2013)
